For 33 molecules, TGI and GI50 results are on record in PubChem BioAssay (NCI).

Holding throughout (assay): NCI tumour cell line growth inhibition, 48 h
Assay [1] relates to CCRF-CEM leukemia.
For assay [2], the system named is MCF7 breast.
Assay [3] concerns NCI-H23 lung.
In assay [4] the test system is M14 melanoma.
Assay [5] deals with OVCAR-5 ovarian.
Assay [6] has as its system UACC-257 melanoma.
For assay [7], the system named is IGROV1 ovarian.
Assay [8] deals with MDA-MB-231 breast.
The test system of assay [9] is A498 renal.
The subject of assay [10] is HS 578T breast.

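Cells were grown in 96-well plates and exposed to each compound for 48 hours at five concentrations; endpoints were interpolated linearly between bracketing concentrations, or set to the highest concentration if not reached. Here, GI50 denotes the concentration required for 50% inhibition of growth. At the TGI there is no net growth.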

As for `Cc1c2cccc-2ccc2c1[nH]c1ccccc12`, the TGI was > 26.1 µM in assay [1]; 12.9 µM in [2]; 8.99 µM in [3]; 3.7 µM in assay [4]; 4.77 µM in assay [5]; 3.12 µM in assay [6]. Further, the TGI in assay [7] is 5.77 µM; in [8], 3.48 µM; in assay [9] it was 28.5 µM.

As for `Cc1cc([N+](=O)[O-])c(S(=O)(=O)c2ccccc2)c([N+](=O)[O-])c1`, the TGI was > 28 µM in [1]; 26.2 µM in assay [3]; 17.6 µM in [4]; 33.6 µM in [5]; 5.16 µM in [6]; 31.1 µM in assay [7]. This molecule also had a TGI in [9] of 35.6 µM.

As to `CC1=C2C(=O)c3ccccc3C(=O)[C@H]2C[C@@H](N2CCCCCC2=O)O1`, the TGI in assay [1] came to 20.3 µM; in assay [3], 31.1 µM; in assay [4] it was 28.8 µM; in [5], 30.4 µM; in assay [6] it was 31.2 µM; in [7] it was 30.7 µM. Further, the TGI in assay [10] was > 100 µM; in [8] it was 53.5 µM; in assay [9], > 100 µM.

As for `CC(c1ccccc1)N1CC(C)(c2ccccc2)N(O)C(c2ccccc2)C1C` (stereo not given), the TGI in assay [1] was 31 µM; in [3], 56.8 µM; in assay [5], > 100 µM; in [6] it was 45.1 µM; in assay [7], > 100 µM; in assay [9], 85.3 µM.

Turning to `O=S1(=O)OCCOS(=O)(=O)C1Cc1nc2ccccc2[nH]1`, the TGI in assay [1], in assay [2], in [3], in [4], in assay [5] and in assay [6] was > 100 µM each time. In addition, the TGI in assay [8] was > 100 µM.

In the case of `N#CCCC1(CCC#N)CCCCCCC(CCC#N)(CCC#N)C(O)C1O` (stereo not given), the TGI in assay [2], in [3], in [4], in assay [5], in [6] and in assay [7] was > 100 µM throughout. Further, in [9], the TGI was > 100 µM.

For the molecule `Nc1c(N=Nc2ccc(-c3ccc(N=Nc4c(O)ccc5cc(S(=O)(=O)O)cc(S(=O)(=O)O)c45)cc3)cc2)c(S(=O)(=O)O)cc2cc(S(=O)(=O)O)c(N=Nc3ccccc3)c(O)c12`, the TGI in assay [1], in assay [2], in [3], in assay [5], in assay [6] and in [7] was > 100 µM in each case. The TGI in [9] was > 100 µM.

For `COc1cc2cccc(N=Cc3c(Br)ccc(OC)c3OC(C)C)c2cc1OC`, the TGI in [1] was 90.4 µM; in [3] it was > 100 µM; in assay [4], > 100 µM; in assay [5] it was > 100 µM; in assay [6], > 100 µM; in assay [7] it was > 100 µM. The TGI in [9] is > 100 µM.

`CC(=O)NC1=C(NCC(C)C)C(=O)c2ccccc2C1=O`: the TGI in assay [1] is 28.4 µM; in assay [3], 59.7 µM; in assay [4] it was 33.2 µM; in assay [5] it was > 100 µM; in [6], 36.4 µM; in [7], > 100 µM. In addition, in assay [9], the TGI is > 100 µM.

Regarding `OC12CCCCCC1(N1CCOCC1)c1ccccc12` (stereo not given), the TGI in [1], in [3], in [4], in [5], in assay [6] and in assay [7] was > 100 µM each time. Also, the TGI in assay [9] was > 100 µM.

For `COc1ccc(/C=C2\CCC(CNc3ccc(Br)cc3)C2=O)cc1` (stereo not given), the TGI in assay [1], in assay [2], in assay [3], in [4], in assay [5] and in assay [6] was > 100 µM in each case. Further, the TGI in assay [7], in assay [8] and in assay [9] was > 100 µM in each case.

Turning to `CCN(CC)CCCCC1CCN(CC(=O)N2c3ccccc3NC(=O)CC2C)CC1` (stereo not given), the TGI in [1], in [3], in assay [4], in assay [5], in assay [6] and in [7] was > 100 µM in each case. Further, in [9], the TGI is > 100 µM.

Turning to `COC(=O)CC(NC(=O)OCc1ccccc1)C(C(=O)OCc1ccccc1)C1(C)OCCO1` (stereo not given), the TGI in assay [1], in assay [3], in assay [4], in [6], in assay [7] and in [9] was > 100 µM in each case.

Take `COC1=CC(=O)C2=C(C1=O)[C@H]1CC[C@]3(C)[C@@H](OC(C)=O)CC[C@H]3[C@@H]1CC2`: the TGI in [1], in assay [3], in assay [4], in assay [5], in [6] and in assay [7] was > 100 µM in each case. The TGI in assay [10] was > 100 µM; in [8], 35.3 µM; in assay [9] it was > 100 µM.

In the case of `Cc1cc2occ(-c3ccc(Cl)cc3)c2c(=O)o1`, the TGI in assay [1], in [3], in [4], in assay [5], in assay [6] and in assay [7] was > 100 µM throughout. In addition, the TGI in assay [9] was > 100 µM.

Regarding `O=C(OCc1ccccc1C1CSCSC1)c1cc(C(=O)OCc2ccccc2C2CSCSC2)c(C(=O)OCc2ccccc2C2CSCSC2)cc1C(=O)OCc1ccccc1C1CSCSC1`, the TGI in [1], in assay [3], in assay [4], in assay [5], in [6] and in [7] was > 100 µM throughout. For the same molecule, in assay [9], the TGI is > 100 µM.

In the case of `O=c1c2c(nc3n1CCC3)sc1c(O)c(Br)ccc12`, the TGI in [1] is 45.1 µM; in [3], 92.7 µM; in [4], > 100 µM; in [5], 51.7 µM; in assay [6] it was 30.7 µM; in assay [7] it was 82.5 µM. Moreover, in assay [9], the TGI was 24.5 µM.

As for `COc1ccc(C2=C(OC(=O)N(C)C)c3cccn3-c3cc(Cl)ccc3S2)cc1`, the TGI in assay [1], in [2], in assay [3], in assay [4], in assay [6] and in [7] was > 10 µM each time. In addition, the TGI in [8] is > 10 µM.

Regarding `COc1cccc(CN(C(=O)/C=C\Sc2ccccc2)C(C)(C)C)c1`, the TGI in assay [1], in assay [2], in [3], in assay [4], in [5] and in assay [6] was > 100 µM each time. Further, the TGI in assay [7], in assay [8] and in assay [9] was > 100 µM throughout.

For `C=CCOC(=O)CCCCCCCCCCCCCCCOC(=O)C1=C(CCC[C@@H](C)O[Si](C)(C)C(C)(C)C)NC(=O)N2[C@H](CC3(CC/C=C\[C@H](CC)O[Si](C(C)C)(C(C)C)C(C)C)OCCO3)CC[C@H]12`, the TGI in assay [1], in assay [2], in assay [3], in [4], in assay [5] and in assay [6] was > 100 µM throughout. For the same molecule, the TGI in assay [8] and in [9] was > 100 µM each time.

On to `CCCCCCOc1ccc(C(=N)N(CCCC)CCCC)c2ccccc12`, for which the GI50 was 1.45 µM in assay [3]; 1.53 µM in assay [5]; 1.6 µM in [6]; 1.34 µM in [7]; 1.61 µM in [10]; 1.19 µM in assay [9]. Moreover, the TGI in assay [3] amounted to 2.8 µM; in assay [5], 2.94 µM; in assay [6], 3.06 µM; in [7], 2.86 µM; in [10], 3.76 µM; in assay [9], 2.45 µM.

On to `COC(=O)C(NC(=O)CSc1nnc(COc2ccc(Cl)cc2)n1-c1ccccc1)C(C)C` (stereo not given), for which the TGI is > 100 µM in [1]; > 100 µM in [2]; 69.3 µM in assay [3]; 58 µM in assay [4]; 75.9 µM in [5]; 34 µM in assay [6]. For the same molecule, the figures for the TGI in assay [7], in [8] and in assay [9] were 36.8 µM, 35.1 µM and > 100 µM, respectively.

Consider `CCOC1=C2NC(Cc3ccc(F)cc3)=NC2C(=O)c2ccccc21` (stereo not given), for which the TGI in assay [1] is 61.8 µM; in assay [3] it was 53.4 µM; in assay [4], 73.4 µM; in assay [5] it was > 100 µM; in assay [6] it was 50.8 µM; in assay [7], > 100 µM. This molecule came in with a TGI in [9] of 87.9 µM.

In the case of `O=C1CSc2nnc(CCCCCCCCc3nnc4n3NC(=O)CS4)n2N1`, the TGI in assay [1] is 51.1 µM; in assay [2], > 100 µM; in [3], > 100 µM; in assay [4] it was > 100 µM; in assay [5], > 100 µM; in assay [6], > 100 µM. For the same molecule, the TGI in [7], in [8] and in [9] was > 100 µM each time.

On to `c1ccc(OCCSCCCCCCCCCCSCCOc2ccccc2)cc1`, for which the TGI in assay [1], in [3], in assay [4], in [5], in assay [6] and in assay [7] was > 100 µM throughout. Moreover, the TGI in assay [9] was > 100 µM.

On to `Cc1ccc2c(c1)CC1(C2=O)[C@H](c2ccccc2)C2C(=O)c3ccc(C)cc3C2[C@H]1c1ccccc1` (stereo not given in full), for which the TGI in assay [1], in assay [2], in assay [3], in [4], in [5] and in assay [6] was > 100 µM each time. Also, the TGI in assay [7], in assay [8] and in assay [9] was > 100 µM throughout.

As for `Cc1cc(=O)[nH]c(NNC(C#N)c2ccc([N+](=O)[O-])cc2)n1` (stereo not given), the TGI in [1], in assay [3], in assay [4], in assay [5], in assay [6] and in assay [7] was > 100 µM throughout.

For the molecule `C/C(=N/O)c1ccc2c(c1)C(=NO)c1cc(/C(C)=N/O)ccc1-2`, the TGI was determined as 35.3 µM in assay [3]; 31.2 µM in assay [4]; 31.6 µM in assay [5]; 5.87 µM in [6]; 49.2 µM in [7].

`CC1(C)[C@@H]2CC[C@@]1(C)[C@H](O)[C@@H]2SCc1ccccc1`: the TGI in assay [1] turned out to be 96.6 µM; in [3] it was 29.1 µM; in assay [4] it was 30.1 µM; in assay [5], 33.1 µM; in assay [6] it was 32.5 µM; in [7], 37.4 µM. The TGI turned out to be 30.7 µM in assay [10], 33 µM in assay [8] and 0.0578 µM in [9].

Regarding `COc1ccc(-c2c3ccccc3c(-c3ccc(OCCCCCBr)cc3)c3ccccc23)cc1`, the TGI in [1], in assay [4], in assay [5] and in assay [7] was > 100 µM each time.

As for `CCOc1ccc(-c2oc(/C=N/NS(=O)(=O)c3ccc(C)cc3)c([N+](=O)[O-])c2-c2ccc(OCC)cc2)cc1`, the TGI in assay [1] came to 8.04 µM; in [3] it was 31.4 µM; in [4] it was 27.7 µM; in [5], 24.1 µM; in assay [6], 45 µM; in assay [7] it was 32.3 µM. Besides, the TGI in assay [9] was determined as 41.4 µM.

In the case of `CC(=O)Nc1ccc(C(=O)N2N=C(C)/C(=C/c3ccc(O)cc3)C2=O)cc1`, the TGI in [1], in assay [3], in [5] and in assay [6] was > 100 µM each time.

With `O=C(CSc1nc2ccc(I)cc2c(=O)n1Cc1ccccc1)NN1C(=O)CCC1=O`, the TGI in [1] is > 100 µM; in [2], > 100 µM; in assay [3], 66.6 µM; in assay [4], > 100 µM; in assay [5] it was > 100 µM; in [6], > 100 µM. For the same molecule, the figures for the TGI in [7] and in assay [8] were 90.9 µM and > 100 µM, respectively.
